Test results taken from article PMC12016531 (Applied and Environmental Microbiology, 2025).

Legend:
[1] = tested on: Bacillus cereus CMCC63301; assay: Intracellular accumulation of UDP-MurNAc-pentapeptide; assay type: cell-based; settings: mycoidesin 1× and 2× MIC, vancomycin 10× MIC; 60 min; chloramphenicol 130 µg/mL pre-incubation 15 min; HPLC, MS
Protocol: (§1) Bacillus cereus CMCC63301 and L. monocytogenes ATCC19111 were grown to an OD600 of 0.3 and incubated with chloramphenicol (130 µg/mL) for 15 min. Mycoidesin (1× and 2× MIC) and vancomycin (10× MIC; positive control) were added and incubated for 60 min. The cells were collected, added to boiling water, treated for 15 min, centrifuged, and the supernatant was lyophilized. The intracellular accumulation of the peptidoglycan precursor UDP-MurNAc-pentapeptide was analyzed using HPLC (Hypersil ODS column) and identified via mass spectrometry ([27]).

[2] = tested on: L. monocytogenes ATCC19111; assay: as above; assay type: cell-based, Listeria monocytogenes; settings: mycoidesin 1× and 2× MIC, vancomycin 10× MIC; 60 min; chloramphenicol 130 µg/mL pre-incubation 15 min; HPLC, MS
Protocol: as §1

CN[C@H](CC(C)C)C(=O)N[C@H]1C(=O)N[C@@H](CC(N)=O)C(=O)N[C@H]2C(=O)N[C@H]3C(=O)N[C@H](C(=O)N[C@H](C(=O)O)c4cc(O)cc(O)c4-c4cc3ccc4O)[C@H](O)c3ccc(c(Cl)c3)Oc3cc2cc(c3O[C@@H]2O[C@H](CO)[C@@H](O)[C@H](O)[C@H]2O[C@H]2C[C@](C)(N)[C@H](O)[C@H](C)O2)Oc2ccc(cc2Cl)[C@H]1O [vancomycin, reference compound]
Intracellular accumulation of UDP-MurNAc-pentapeptide [1]: observed
Intracellular accumulation of UDP-MurNAc-pentapeptide [2]: observed
